Assay results from US9399123B2, “Silicone adhesive compositions” (Momentive Performance Materials Inc., priority 2012, dated 2016).

Assay: DSC of drug crystals in adhesive (heat of melting, solid drug fraction)
Assay type: physicochemical
Method: To further study the interaction, the drug containing samples were analyzed via DSC using a TA Instruments Differential Scanning Calorimeter. The ionic silicone and PDMS-based samples containing ibuprofen, as well as pure drug were heated from room temperature to 200° C. at a rate of 5° C./min. The drug melting point, Tm was identified at 77° C. […] This evidence of differential interactions could explain the difference in ibuprofen release through these systems (FIGS. 5(b) and (c)).
The difference in drug compatibility with the ionic silicone adhesive vis-á-vis the PDMS adhesive was determined via DSC as described in Example 12 above. The free drug, and drug loaded PDMS and ionic silicone adhesive were subjected to a heating and cooling cycle under air atmosphere. The DSC thermograms are show in FIG. 9(b).
To quantify the result and the difference in compatibility, the areas were calculated as normalized heat of melting of drug crystals present in the formulation. The values were attributed to the solid fraction of distinct drug crystals present in the formulation, and the following results were obtained: […]

SMILES: C[C@]12CC[C@H]3[C@@H](CCC4=CC(=O)CC[C@@]43C)[C@@H]1CC[C@@H]2O [Testosterone]
- Heat of Melting (DSC, normalized heat of melting of drug crystals): 73 J/gm
- % Solid drug fraction (from heat of melting relative to free testosterone (100% assigned)): 100%
